Data on four compounds can be found in patent publication US20200360405A1, “COMPOSITIONS AND METHODS FOR REDUCING LOCAL AND SYSTEMIC RISKS OF ENVENOMATION” (THE HENRY M. JACKSON FONDATION FOR THE ADVANCEMENT OF …, priority 2017, published 2020).

Experiment [1] addresses N. kaouthia crude venom PLA2. The experiment can be described thus: Phospholipase A2 activity assay (EnzChek), N. kaouthia crude venom. The conditions noted are these: for IC50 / PLA2 ≥90% inhibition (concentration), N. kaouthia venom: 0.4 μg venom, 10 minute time point, Example 1; for Effect on N. kaouthia venom PLA2 activity (in words): venom pre-incubated 5-10 minutes with increasing concentrations, Example 2. Format: biochemical, Naja naja kaouthia. The method, then:
(§1) EnzChek® Phospholipase A 2 assay kits were used according to the manufacturer's recommendations. Briefly, equal volumes of venom solutions were incubated with PLA2 substrate and fluorometric analysis was performed over the course of 20 minutes. Venom activity was determined by creating a standard curve based upon PLA2 from honey bee venom.
(§2) For inhibition experiments, 0.4 μg N. kaouthia or 0.2 μg V. russelli venom was pre-incubated with the specified spreading factor inhibitor(s) for 5-10 minutes before adding the reaction to an equal volume of PLA2 substrate. Fluorometric analysis was performed over 20 minutes, with the 10 minute time point values being used to determine the percent inhibition. Background values were subtracted from all samples, and data was normalized to the venom-only controls. Excitation and emission wavelengths for these experiments were 485(20) nm and 528(20) nm, respectively.
(§3) Data are shown as the mean and standard deviation (SD) of at least duplicate readings. The half maximal inhibitory concentration (IC50) values were determined using GraphPad Prism. Table 1 summarizes the inhibitory activity of various spreading factor inhibitors for N. kaouthia and V. russelli crude venom extracts.
(§4) Snake venom samples were incubated with increasing concentrations of sodium aurothiomalate and/or doxycycline for 5-10 minutes prior to assaying the venom hyaluronidase, gelatinase, and PLA2 activities. As observed in Example 1, sodium aurothiomalate inhibited N. kaouthia and V. russeiii venom hyaluronidase activities, whereas doxycycline inhibited the venom gelatinase and PLA2 activities.

Experiment [2] has as its target V. russelli crude venom PLA2. The experiment can be described thus: Phospholipase A2 activity assay (EnzChek), V. russelli crude venom. The conditions noted are these: for IC50 / PLA2 ≥90% inhibition (concentration), V. russelli venom: 0.2 μg venom, 10 minute time point, Example 1; for Effect on V. russelli venom PLA2 activity (in words): venom pre-incubated 5-10 minutes with increasing concentrations, Example 2. Format: biochemical, Vipera russelli. The method, then:
as §1, §2, §3, §4

Experiment [3] addresses N. kaouthia crude venom hyaluronidase. The experiment can be described thus: Hyaluronidase activity assay, N. kaouthia crude venom. Format: biochemical, Naja naja kaouthia. The conditions noted are these: for Effect on N. kaouthia venom hyaluronidase activity (in words): venom pre-incubated 5-10 minutes with increasing concentrations, Example 2. As to the method:
(§5) Hyaluronidase activity was assessed using the Enzymatic Assay of Hyaluronidase (3.2.1.35) protocol from Sigma Aldrich. Briefly, equal volumes of venom were incubated with 0.03% hyaluronic acid solution (0.03% (w/v) hyaluronic acid in 300 mM sodium phosphate (approximately pH 5.35)) for 1.5 hours at 37° C. A reaction aliquot was then added to a 5-fold volume of acidic albumin solution (24 mM sodium acetate, 70 mM acetic acid, 0.1% BSA adjusted to approximately pH 3.75), allowed to stand for 10 minutes, and then absorbance at 600 nm was measured. Data was converted to percent transmission (% T) and adjusted for background signals. Venom hyaluronidase activities were determined by creating a standard curve with bovine testes hyaluronidase.
(§6) For inhibition experiments, 6.75 μg N. kaouthia or 15 μg V. russelli venom was pre-incubated with the specified spreading factor inhibitor(s) for 5-10 minutes before adding an equal volume of the reaction to the hyaluronic acid solution. Data was converted to % T, adjusted for background signals, and then normalized to the venom-only controls.
as §3, §4

Experiment [4] deals with V. russelli crude venom hyaluronidase. Description: Hyaluronidase activity assay, V. russelli crude venom. Format: biochemical, Vipera russelli. The conditions noted are these: for Effect on V. russelli venom hyaluronidase activity (in words): venom pre-incubated 5-10 minutes with increasing concentrations, Example 2. As to the method:
as §5, §6, §3, §4

Experiment [5] concerns the target N. kaouthia crude venom gelatinase. Description: Gelatinase activity assay (EnzChek), N. kaouthia crude venom. Format: biochemical, Naja naja kaouthia. The method, then:
(§7) EnzChek® Gelatinase/Collagenase assay kits were used according to the manufacturer's recommendations. Briefly, equal volumes of venom solutions were incubated with 1.0 mg/mL DQ gelatin and fluorometric analysis was performed for at least three hours, using excitation and emission wavelengths of 485(20) nm and 528(20) nm, respectively. Venom activity was determined by creating a standard curve with Clostridium histolyticum collagenase activity.
(§8) For inhibition experiments, 30 μg N. kaouthia or V. russelli venom was pre-incubated with the specified spreading factor inhibitor(s) for 5-10 minutes before adding an equal volume of the reaction to the 1.0 mg/mL DQ gelatin solution. Fluorometric readings were measured over the course of five hours, with the five hour time points being used to determine the percent inhibition. Data was adjusted for background signals and then normalized to the venom-only controls.
as §3, §4

In experiment [6] the target is V. russelli crude venom gelatinase. Description: Gelatinase activity assay (EnzChek), V. russelli crude venom. Format: biochemical, Vipera russelli. The method, then:
as §7, §8, §3, §4

[7] abbreviates: 6.75 μg venom, pre-incubation 5-10 min, Example 1.
[8] abbreviates: 15 μg venom, pre-incubation 5-10 min, Example 1.
Where [9] appears, read: 30 μg venom, five hour time point, Example 1.
[10] abbreviates: venom pre-incubated 5-10 minutes with increasing concentrations, Example 2.
[11] abbreviates: asterisk: data obtained according to Example 2, five hour time point.

For `CC1=C(CC/C(C)=C/CCC2=CC[C@H](C3=CC(=O)O[C@H]3O)O[C@H]2O)C(C)(C)CCC1` [Manoalide], in experiment [1], half-maximal inhibition (IC50) required 777 µM and the “PLA2 ≥90% inhibition (concentration), N. kaouthia venom” value was greater than 1000 µM. Also, in experiment [2], inhibition was half-maximal at 31.4 µM (IC50) and the “PLA2 ≥90% inhibition (concentration), V. russelli venom” value is 1000 µM.

On to `CC(=O)N[C@@H](CS)C(=O)O` [N-acetyl-L-cysteine], for which, in experiment [3] (setting [7]), the “Hyaluronidase IC50, N. kaouthia venom” value came to 4503 µg/mL and the “Hyaluronidase ≥90% inhibition (concentration), N. kaouthia venom” value amounted to 4.8 mg/mL. Besides, in experiment [3], the “Effect on N. kaouthia venom hyaluronidase activity (in words)” value is “inhibited”. In experiment [4] (setting [8]), the “Hyaluronidase IC50, V. russelli venom” value was roughly 4989 µg/mL and the “Hyaluronidase ≥90% inhibition (concentration), V. russelli venom” value fell in the range of 6.0 to 9.6 mg/mL. In experiment [4], the “Effect on V. russelli venom hyaluronidase activity (in words)” value is given as “inhibited”. Moreover, in experiment [5] (setting [9]), the “Gelatinase IC50, N. kaouthia venom” value stood at 1850 µg/mL and the “Gelatinase ≥90% inhibition (concentration), N. kaouthia venom” value came to 1.32 mg/mL. Also, in experiment [5] (setting [10]), the “Effect on N. kaouthia venom gelatinase activity (in words)” value is “inhibited”. Moreover, in experiment [6] (setting [9]), the “Gelatinase IC50, V. russelli venom” value worked out at 1870 µg/mL and the “Gelatinase ≥90% inhibition (concentration), V. russelli venom” value was 2.31 mg/mL. The “Effect on V. russelli venom gelatinase activity (in words)” value in experiment [6] (setting [10]) is given as “inhibited”. Besides, the “Effect on N. kaouthia venom PLA2 activity (in words)” value in experiment [1] is recorded as “consistently enhanced”. For the same compound, in experiment [2] (N-acetyl-L-cysteine alone), the “Enhancement of PLA2 activities in V. russelli venom” value was 3-4 fold. Also, in experiment [2], the “Effect on V. russelli venom PLA2 activity (in words)” value is given as “consistently enhanced”.

As for `O=C([O-])CC([S-])C(=O)[O-].[Au+].[Na+].[Na+]` (stereo not drawn) [Sodium aurothiomalate, sodium aurothiomalate], in experiment [3] (setting [7]), the “Hyaluronidase ≥90% inhibition (concentration), N. kaouthia venom” value was 136.30 µM and the half-inhibitory concentration (IC50) stood at 42 µM. The “Effect on N. kaouthia venom hyaluronidase activity (in words)” value in experiment [3] is recorded as “inhibited”. Also, in experiment [4] (setting [8]), the “Hyaluronidase ≥90% inhibition (concentration), V. russelli venom” value was determined as 373.25 µM and 147 µM corresponded to half-maximal inhibition (IC50). Besides, the “Effect on V. russelli venom hyaluronidase activity (in words)” value in experiment [4] is “inhibited”. Moreover, in experiment [5] (setting [11]), the “Gelatinase ≥90% inhibition (concentration), N. kaouthia venom” value was greater than 208 µM and the IC50 is 47 ± 30.4 µM. In addition, in experiment [1], the “Effect on N. kaouthia venom PLA2 activity (in words)” value is on record as “moderate, but statistically significant increase”. In experiment [2], the “Effect on V. russelli venom PLA2 activity (in words)” value was “moderate, but statistically significant increase”.

As for `Cc1ccc(C(=O)Nc2ccc(S(=O)(=O)O)c3cc(S(=O)(=O)O)cc(S(=O)(=O)O)c23)cc1NC(=O)c1cccc(NC(=O)Nc2cccc(C(=O)Nc3cc(C(=O)Nc4ccc(S(=O)(=O)O)c5cc(S(=O)(=O)O)cc(S(=O)(=O)O)c45)ccc3C)c2)c1` [Suramin], in experiment [1], the IC50 came out at 1520 ± 528 µM and the “PLA2 ≥90% inhibition (concentration), N. kaouthia venom” value stood at 12500 µM. Moreover, in experiment [2], half-maximal inhibition (IC50) required 2010 µM and the “PLA2 ≥90% inhibition (concentration), V. russelli venom” value worked out at 12500 µM.
